We go through two compounds from paper PMC5376947, “Cytotoxicity of Zardaverine in Embryonal Rhabdomyosarcoma from a Costello Syndrome Patient” (Frontiers in Oncology, 2017).

For test [1], the system named is PDE3. Particulars: PDE 3; ref [13]; read-out: Reported PDE inhibition IC50; cited from earlier work.
Test [2] has as its system PDE4B. Also on record: method as in PMID 15576036. Particulars: ref [14], read-out: Reported PDE inhibition IC50; cited from earlier work.
Test [3] relates to PDE3B. Also on record: method as in PMID 15576036. Particulars: ref [14], read-out: Reported PDE inhibition IC50; cited from earlier work.
Test [4] has as its system glucocorticoid receptor (GR) activation. Kind of test: MMTV reporter gene assay (dexamethasone-induced firefly luciferase) in HeLa. Type of test: cell-based. Particulars: Homo sapiens, 24 h, 100 nM dexamethasone, GL4.36[luc2P/MMTV/Hygro], read-out: IC50, reversal of dexamethasone activation of luciferase expression. The protocol:
(§1) HeLa cells were seeded in 10 cm^2 dishes at 2 million cells/dish, in phenol red-free DMEM containing 4 mM L-glutamine and 5% CS-FBS, and allowed to attach overnight. Using Lipofectamine 3000, cells were transfected with one of three combinations of vectors: GL4.36[luc2P/MMTV/Hygro] and pNL1.1.TK[Nluc/TK], pGL4.54[luc2/TK] and pNL1.1.TK[Nluc/TK], or pNL1.1.TK[Nluc/TK] alone. Transfection proceeded for 24 h, after which the cells were harvested and seeded into 384-well opaque white plates by adding 2,500 cells/well in 20 μl fresh media to 5 μl media containing serially diluted zardaverine (15 point, twofold serial dilution, 0.12 nM to 2.0 μM final concentration) and dexamethasone (0 or 100 nM final concentration). After 12 and 24 h, plates were assayed for expression of firefly and NanoLuc luciferases using Nano-Glo® Dual-Luciferase® Reporter, or cell viability using CellTiter-Glo.
(§2) We selected the inducible GL4.36[luc2P/MMTV/Hygro] vector to determine whether zardaverine inhibited gene expression driven by GR activation. This vector expresses firefly luciferase under the control of the MMTV, which contains steroid response elements that activate gene expression in response to glucocorticoids such as dexamethasone. […]
On the technique in general: A reporter such as luciferase makes a cellular process visible.

Test [5] deals with constitutive luciferase expression (HSV-tk promoter). Kind of test: Constitutive HSV-tk promoter firefly luciferase (pGL4.54[luc2/TK]) control in HeLa. Particulars: Homo sapiens, 24 h, no dexamethasone, read-out: IC50, inhibition of constitutive luciferase expression. The test is classed as cell-based. The method, then:
as §1, §2

The test system of test [6] is NanoLuc luciferase levels. Kind of test: NanoLuc luciferase (pNL1.1.TK[Nluc/TK]) levels in transfected HeLa. The test is classed as cell-based, human. Conditions: 12 and 24 h, all three cell populations. The protocol: as §1, §2
The test system of test [7] is PDEs 5A, 8A, 10A, and 11A. Also on record: method as in PMID 15576036. Conditions: range over the four PDEs; ref [14]; read-out: IC50s against PDEs 5A, 8A, 10A, and 11A (modest inhibition); cited from earlier work.

Consider `O=C1CN2Cc3c(ccc(Cl)c3Cl)N=C2N1` [Anagrelide], for which, in test [1], the IC50 was 36 nM.

Take `COc1cc(-c2ccc(=O)[nH]n2)ccc1OC(F)F` [Zardaverine]: the IC50 is 930 nM in test [2]; 1500 nM in test [3]; 7.7 nM in test [4]; 8 nM in test [5]; 14000 to 160000 nM in test [7]. For the same compound, the “levels of NanoLuc luciferase, in words” value in test [6] is on record as “unaffected”.
